Tests used:
[1] = target: cyclophilin A (Homo sapiens, UniProt P62937); experiment: biochemical
[2] = test system: HCV replicon 1a (human hepatoma Huh-7 cell line harboring a HCV replicon); experiment: microbe, parasite or virus in culture; assay type: cell-based; details: Hepatitis C virus, Huh-7, 72 h, read-out: Replicon 1a % inhibition at 1 μm

Chain of cyclophilin A (P62937 whole entry, species assumed): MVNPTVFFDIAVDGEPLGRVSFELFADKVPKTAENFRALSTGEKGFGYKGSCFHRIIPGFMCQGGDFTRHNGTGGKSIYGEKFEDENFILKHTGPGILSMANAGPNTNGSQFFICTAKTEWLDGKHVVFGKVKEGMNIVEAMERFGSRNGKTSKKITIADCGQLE

| IC50 [1] [nM] | Compound | inhibition at 1 µM [2] [%] |
| --- | --- | --- |
| 1000 to 10000 | CC(C)[C@@H]1NC(=O)/C=C\c2cc3cc(ccc3cn2)[C@@H](C)NC(=O)[C@@H]2CCCN(N2)C(=O)[C@H](C)NC1=O [Example 12] | – |
| < 100 | CC(C)[C@@H]1NC(=O)[C@@H]([C@H](C)O)/C=C/c2ccc3ccc(nc3c2)[C@@H](C)OC(=O)[C@@H]2CCCN(N2)C(=O)[C@H](C)NC1=O [Example 31] | – |
| – | CO[C@@H]1/C=C/c2cc3cc(ccc3cn2)[C@@H](C)OC(=O)[C@@]2(C)CCCN(N2)C(=O)[C@H](C)NC(=O)[C@H](C(C)C)NC(=O)[C@@H]1C [Example 33] | 14 |

Source: patent US10246486B2, “Macrocyclic inhibitors of flaviviridae viruses” (Gilead Sciences, Inc., priority 2012, dated 2019)
